The test has as its system α7 integrin promoter. The experiment in a line: muscle cell-based assay: α7βgal+/− myoblasts/myotubes, LacZ reporter, β-galactosidase cleavage of FDG. Details: species or system mouse. Particulars: Myotubes; for Results in a α7+/− β-galactosidase assay, Myotubes, 0.5 uM: compound at 0.5 uM; for Results in a α7+/− β-galactosidase assay, Myotubes, 1 uM: compound at 1 uM; for Results in a α7+/− β-galactosidase assay, Myotubes, 5 uM: compound at 5 uM; for Results in a α7+/− β-galactosidase assay, Myotubes, 10 uM: compound at 10 uM; for Results in a α7+/− β-galactosidase assay, Myotubes, 20 uM: compound at 20 uM; for Results in a α7+/− β-galactosidase assay, Myotubes, 40 uM: compound at 40 uM. In outline: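 Fluorescein generated from FDG by β-galactosidase reports α7 integrin promoter activity in differentiated myoblasts from α7+/− LacZ knock-in pups. Screening hits then went to dose-response, western blotting and a myostatin counterscreen.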

Several values for one entry are separate records, joined by “and”; a condition that tells them apart may be missing. Equal entries are not always repeated.

In the case of `OC(c1nc2cc(F)ccc2[nH]1)C(O)c1nc2cc(F)ccc2[nH]1` (stereo not shown) [drawing 365], the “Results in a α7+/− β-galactosidase assay, Myotubes, 0.5 uM” value (“Results … 0.5 uM” below) turned out to be 0.0667; the “Results in a α7+/− β-galactosidase assay, Myotubes, 1 uM” value (“Results … 1 uM” for short) turned out to be 0.1032; the “Results in a α7+/− β-galactosidase assay, Myotubes, 5 uM” value (“Results … Myotubes, 5 uM” for short) is recorded as 0.2081; the “Results in a α7+/− β-galactosidase assay, Myotubes, 10 uM” value (“Results … 10 uM” below) was 0.01319. Also, the “Results in a α7+/− β-galactosidase assay, Myotubes, 20 uM” value (“Results … 20 uM” below) is given as −0.09026 and the “Results in a α7+/− β-galactosidase assay, Myotubes, 40 uM” value (“Results … 40 uM” below) is reported as −0.08066.
On to `COc1ccc(OC)c(NC(=O)CN2CCC(NC(=O)c3ccccc3C)CC2)c1` [drawing 366], for which the “Results … 0.5 uM” value turned out to be 0.003237; the “Results … 1 uM” value turned out to be 0.04584; the “Results … Myotubes, 5 uM” value was −0.09583; the “Results … 10 uM” value is given as −0.1153. For the same molecule, the “Results … 20 uM” value is −0.1579 and the “Results … 40 uM” value is listed as −0.08927.
As to `O=C(CCc1ccccc1)c1nnc(-c2ccccc2)o1` [drawing 367], the “Results … 0.5 uM” value is on record as 0.117; the “Results … 1 uM” value is 0.1296; the “Results … Myotubes, 5 uM” value was −0.09921; the “Results … 10 uM” value was −0.1418. The “Results … 20 uM” value is listed as −0.1125 and the “Results … 40 uM” value amounted to 0.05525.
Regarding `COc1ccc(/N=N/c2ccc(N)nc2N)cc1` [drawing 368], the “Results … 0.5 uM” value is given as 0.1561; the “Results … 1 uM” value stood at 0.1699; the “Results … Myotubes, 5 uM” value is reported as −0.00041; the “Results … 10 uM” value was −0.06379. Further, the “Results … 20 uM” value is listed as −0.1224 and the “Results … 40 uM” value is recorded as −0.03271.
Turning to `N=C(NOC(=O)c1cccc(C(F)(F)F)c1)c1cnccn1` [drawing 369], the “Results … 0.5 uM” value is 0.07542; the “Results … 1 uM” value was found to be 0.07664; the “Results … Myotubes, 5 uM” value is listed as −0.08801; the “Results … 10 uM” value is reported as −0.1676. In addition, the “Results … 20 uM” value is −0.1858 and the “Results … 40 uM” value is on record as −0.1541.
For `CCOc1ccc2nc(Cl)sc2c1` [drawing 370], the “Results … 0.5 uM” value is recorded as −0.00103; the “Results … 1 uM” value amounted to 0.001963; the “Results … Myotubes, 5 uM” value is −0.02718; the “Results … 10 uM” value is on record as −0.04332. Further, the “Results … 20 uM” value is given as −0.1345 and the “Results … 40 uM” value is recorded as −0.219.
For `COc1ccc(CNC(=O)C2CCCN(S(=O)(=O)c3c(C)noc3/C=C/N(C)C)C2)cc1` (stereo not shown) [drawing 371], the “Results … 0.5 uM” value amounted to 0.1862; the “Results … 1 uM” value stood at 0.2675; the “Results … Myotubes, 5 uM” value is recorded as −0.1068; the “Results … 10 uM” value was −0.1252. The “Results … 20 uM” value is recorded as −0.1996 and the “Results … 40 uM” value was −0.2682.
With `CC(O)CNc1nc2c(c(=O)n(Cc3ccc(Br)cc3)c(=O)n2C)n1C` (stereo not shown) [drawing 372], the “Results … 0.5 uM” value was determined as 0.1594; the “Results … 1 uM” value is 0.164; the “Results … Myotubes, 5 uM” value is −0.05597; the “Results … 10 uM” value is given as −0.08357. The “Results … 20 uM” value is −0.2604 and the “Results … 40 uM” value was −0.369.
In the case of `COc1ccc(Cl)cc1NC(=O)c1cc(-c2cc(C)ccc2O)[nH]n1` [drawing 373], the “Results … 0.5 uM” value was 0.00543; the “Results … 1 uM” value came to 0.04041; the “Results … Myotubes, 5 uM” value is −0.08884; the “Results … 10 uM” value is −0.1274. For the same molecule, the “Results … 20 uM” value is given as −0.1168 and the “Results … 40 uM” value is listed as −0.2232.
In the case of `CCC(C)C(CC)NC(=O)CSc1nnc(COc2ccc(Cl)cc2)o1` (stereo not shown) [drawing 374], the “Results … 0.5 uM” value is given as 0.09087; the “Results … 1 uM” value is reported as 0.07758; the “Results … Myotubes, 5 uM” value is −0.09861; the “Results … 10 uM” value is −0.1776. In addition, the “Results … 20 uM” value was −0.01998 and the “Results … 40 uM” value is listed as −0.2485.
Take `N#Cc1ccc(Sc2nc3ccccc3[nH]2)cc1C#N` [drawing 376]: the “Results … 0.5 uM” value was found to be 0.09647; the “Results … 1 uM” value amounted to 0.1219; the “Results … Myotubes, 5 uM” value is listed as 0.01154; the “Results … 10 uM” value is recorded as −0.06084. The “Results … 20 uM” value is on record as −0.00606 and the “Results … 40 uM” value is reported as −0.1145.
For the molecule `COc1cc(/C=C/CN2CCN(Cc3ccc(C)o3)C(CCO)C2)ccc1O` (stereo not shown) [drawing 377], the “Results … 1 uM” value was 0.1027 and 0.08207.
On to `COc1ccccc1C(=O)OCc1ccc2sc(C)nc2c1` [drawing 378], for which the “Results … 0.5 uM” value is on record as −0.04468; the “Results … 1 uM” value came out at 0.06534; the “Results … Myotubes, 5 uM” value is 0.05342; the “Results … 10 uM” value was −0.1134. Also, the “Results … 20 uM” value is on record as −0.02544 and the “Results … 40 uM” value was −0.1114.
Turning to `NC(=O)COc1ccc(C(=O)/C=C2\C(=O)Nc3ccccc32)cc1` [drawing 379], the “Results … 0.5 uM” value is given as 0.04116; the “Results … 1 uM” value is listed as 0.06227; the “Results … Myotubes, 5 uM” value is reported as 0.08579; the “Results … 10 uM” value is listed as −0.1303. Besides, the “Results … 20 uM” value is on record as −0.2553 and the “Results … 40 uM” value is −0.6822.
On to `CC1(C)Cc2ccccc2-c2nc3n(c(=O)c21)CCS3` [drawing 380], for which the “Results … 0.5 uM” value is recorded as 0.09354; the “Results … 1 uM” value is on record as 0.08602; the “Results … Myotubes, 5 uM” value was −0.04079; the “Results … 10 uM” value was −0.05719. The “Results … 20 uM” value was −0.329 and the “Results … 40 uM” value was −0.421.
Turning to `CN(/C(=N/S(=O)(=O)c1cccs1)c1ccccc1)c1ccccc1` [drawing 381], the “Results … 0.5 uM” value is given as −0.07971; the “Results … 1 uM” value came to 0.1809; the “Results … Myotubes, 5 uM” value came to 0.01531; the “Results … 10 uM” value is −0.02849. The “Results … 20 uM” value is on record as 0.1022 and the “Results … 40 uM” value is reported as −0.209.
Regarding `CSc1ccc(S(=O)(=O)NCc2ccccc2)cc1` [drawing 382], the “Results … 0.5 uM” value is −0.1565; the “Results … 1 uM” value was −0.2515; the “Results … Myotubes, 5 uM” value was found to be 0.02007; the “Results … 10 uM” value worked out at 0.1738. Moreover, the “Results … 20 uM” value was −0.1735 and the “Results … 40 uM” value is on record as −0.07044.
For `O=C1Nc2ccccc2/C1=C/c1ccccc1F` [drawing 383], the “Results … 0.5 uM” value is reported as −0.06236; the “Results … 1 uM” value is −0.04077; the “Results … Myotubes, 5 uM” value is −0.1089; the “Results … 10 uM” value stood at 0.02646. Also, the “Results … 20 uM” value was −0.3381 and the “Results … 40 uM” value is reported as −0.4226.
Turning to `CN1C(=O)/C(=C(/C#N)c2nc3ccccc3[nH]2)c2ccccc21` [drawing 384], the “Results … 0.5 uM” value is reported as −0.07617; the “Results … 1 uM” value is reported as −0.02413; the “Results … Myotubes, 5 uM” value is recorded as −0.1571; the “Results … 10 uM” value came out at 0.1257. Besides, the “Results … 20 uM” value is on record as −0.2111 and the “Results … 40 uM” value is −0.2699.
Regarding `CC1CC(C)(C)N=C(S)N1CC(=O)N(C)Cc1ccccc1` (stereo not shown) [drawing 385], the “Results … 0.5 uM” value was 0.02464; the “Results … 1 uM” value is −0.02121; the “Results … Myotubes, 5 uM” value is reported as −0.03109; the “Results … 10 uM” value is listed as 0.2144. In addition, the “Results … 20 uM” value is given as −0.02703 and the “Results … 40 uM” value is recorded as 0.0594.
For `Cc1noc(C)c1COc1ccc(C(=O)NCCc2ccccn2)cc1` [drawing 386], the “Results … 0.5 uM” value was 0.08027; the “Results … 1 uM” value was 0.1153; the “Results … Myotubes, 5 uM” value was −0.04323; the “Results … 10 uM” value is 0.2279. Moreover, the “Results … 20 uM” value is −0.2443 and the “Results … 40 uM” value was −0.1582.

(Values after US10028992B2, “Methods of treating muscular dystrophy” (BOARD OF REGENTS OF THE NEVADA SYSTEM OF HIGHER EDUCATION …, priority 2012, dated 2018).)
